Source: US20230407243A1, “GENETIC PLATFORM TO INVESTIGATE THE FUNCTIONS OF BACTERIAL DRUG EFFLUX PUMPS” (priority 2022, published 2023)
Read-outs that look alike come from different tables or passages of the source.

Columns and labels:
Format in all cases: cell-based, Escherichia coli
[1] = system: EKO-35 acrBD408A
Procedure: (§1) Synergy measurement using checkerboard analysis was performed in 96-well microtiter plates using the microdilution broth method, according to CLSI guidelines (Patel J. B., 2015). The cell inocula were prepared using the colony resuspension method. The minimum inhibitory concentrations (MICs) were defined as the lowest concentration that provided no growth, as determined by measurement of the OD600nm using a Synergy H1 microplate reader (BioTek). Susceptibility testing was performed in MHB II with a final volume of 100 μL. PAI3N (Bachem Americas) was solubilized in MHB II. […] Solvent controls were included in each plate.
(§2) The Fractional Inhibitory Concentration Index (FICI) was used to assess the synergy of PAI3N in combination with different antibiotics. The FICI represents the ΣFIC of each drug. The FICI for each drug was calculated using the following formula: FICI=FICA+FICB=(CA/MICA)+(CB/MICB). Where MICA and MICB are the MICs of drugs A (PAI3N/NMP) and B (antibiotic) alone, and CA and CB are the MICs of the drugs in combination. The effects of PAβN or NMP in combination with antibiotics were classified as: synergistic (FICI<0.5), additive (FICI>0.5-1.0), indifferent (FICI>1.0-2.0), and antagonistic (FICI>2.0). Fold increases in resistance provided by efflux pumps were calculated by dividing the MIC values of strains expressing efflux pumps by the MIC value of EKO-35.

[2] = system: EKO-35
Procedure: as §1, §2

[3] = system: wild-type E. coli K-12
Procedure: as §1, §2

[4] = system: ΔtolC-Pore
Procedure: as §1, §2

[5] = system: ΔtolC
Procedure: as §1, §2

[6] = system: EKO-35 strains producing different efflux pumps (EKO-35 araC::X); assay: Checkerboard synergy (FICI) of PAβN or NMP with antibiotics
Procedure: as §1, §2

[7] = system: EKO-35 porinated strain expressing acrB; assay: Checkerboard synergy (FICI), porinated strain
Summary of the method: (§3)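 Read-out was OD600, the MIC being the lowest concentration without growth in a CLSI checkerboard run in MHB II. Each drug's MIC in combination was divided by its MIC alone and the two ratios summed as FICI. Cut-offs: <0.5 synergy, >0.5–1.0 additive, >1.0–2.0 indifferent, >2.0 antagonism.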

[8] = system: EKO-35-Pore acrBD408A (functionally inactive AcrB variant); assay: Checkerboard synergy (FICI), porinated strain
Summary of the method: as §3

[9] = EKO-35 acrBD408A, NMP + antibiotic
[10] = EKO-35 acrBD408A, PAβN + antibiotic
[11] = strain EKO-35 acrBD408A, NMP + antibiotic
[12] = strain EKO-35, NMP + antibiotic
[13] = strain ΔtolC Pore, NMP + antibiotic
[14] = EKO-35 mdtEF, PAβN + antibiotic
[15] = strain EKO-35 acrB, NMP + antibiotic
[16] = strain EKO-35 acrD, NMP + antibiotic
[17] = strain EKO-35 acrEF, NMP + antibiotic
[18] = EKO-35 acrB Pore, NMP + antibiotic
[19] = EKO-35 acrB Pore, PAβN + antibiotic
[20] = strain EKO-35 acrB Pore, NMP + antibiotic
[21] = EKO-35 acrBD408A Pore, NMP + antibiotic
[22] = EKO-35 acrBD408A Pore, PAβN + antibiotic
[23] = strain EKO-35 acrBD408A Pore, NMP + antibiotic

CC(=O)O[C@H]1C[C@@]2(C)[C@@H](C[C@@H](O)[C@H]3[C@@]4(C)CC[C@@H](O)[C@@H](C)[C@@H]4CC[C@@]32C)/C1=C(\CCC=C(C)C)C(=O)O [fusidic acid]
Effect [1, 9]: Synergistic
FICI [1, 9]: 0.500
Effect [1, 10]: Synergistic
FICI [1, 10]: 0.250
MICb Alone ([1]; EKO-35 acrBD408A, antibiotic alone (PAβN checkerboard)): 4 µg/mL
MICb Combined ([1]; EKO-35 acrBD408A, antibiotic in combination with PAβN): 0.5 µg/mL
Effect [1, 11]: Synergistic (Synergy (FICI ≤0.5))
FICI [1, 11]: 0.500
MICb Alone ([1]; strain EKO-35 acrBD408A, antibiotic alone): 4 µg/mL
MICb Combined ([1]; strain EKO-35 acrBD408A, antibiotic in combination with NMP): 1 µg/mL
Effect ([2]; EKO-35, NMP + antibiotic): Additive
FICI ([2]; EKO-35, NMP + antibiotic): 0.625
Effect ([2]; EKO-35, PAβN + antibiotic): Synergistic
FICI ([2]; EKO-35, PAβN + antibiotic): 0.158
MICb Alone ([2]; EKO-35, antibiotic alone (PAβN checkerboard)): 4 µg/mL
MICb Combined ([2]; EKO-35, antibiotic in combination with PAβN): 0.13 µg/mL
interaction of PAβN in combination with the labelled antibiotic (FICI) ([2]; efflux-deficient strains EKO-35, EKO-35 acrBD408A, ΔtolC): synergized
Effect [2, 12]: Additive (additive (FICI >0.5-1.0))
FICI [2, 12]: 0.625
MICb Alone ([2]; strain EKO-35, antibiotic alone): 4 µg/mL
MICb Combined ([2]; strain EKO-35, antibiotic in combination with NMP): 0.5 µg/mL
Effect ([3]; K-12, NMP + antibiotic): Synergistic
FICI ([3]; K-12, NMP + antibiotic): 0.375
Effect ([3]; K-12, PAβN + antibiotic): Synergistic
FICI ([3]; K-12, PAβN + antibiotic): 0.156
MICb Alone ([3]; K-12, antibiotic alone (PAβN checkerboard)): 1024 µg/mL
MICb Combined ([3]; K-12, antibiotic in combination with PAβN): 32 µg/mL
Effect ([3]; strain K-12, NMP + antibiotic): Synergistic (Synergy (FICI ≤0.5))
FICI ([3]; strain K-12, NMP + antibiotic): 0.375
MICb Alone ([3]; strain K-12, antibiotic alone): 1024 µg/mL
MICb Combined ([3]; strain K-12, antibiotic in combination with NMP): 128 µg/mL
Effect [4, 13]: Additive (additive (FICI >0.5-1.0))
FICI [4, 13]: 0.750
MICb Alone ([4]; strain ΔtolC Pore, antibiotic alone): 2 µg/mL
MICb Combined ([4]; strain ΔtolC Pore, antibiotic in combination with NMP): 1 µg/mL
Effect ([4]; ΔtolC Pore, NMP + antibiotic): Additive
FICI ([4]; ΔtolC Pore, NMP + antibiotic): 0.750
Effect ([4]; ΔtolC Pore, PAβN + antibiotic): Synergistic
FICI ([4]; ΔtolC Pore, PAβN + antibiotic): 0.375
MICb Alone ([4]; ΔtolC Pore, antibiotic alone (PAβN checkerboard)): 2 µg/mL
MICb Combined ([4]; ΔtolC Pore, antibiotic in combination with PAβN): 0.25 µg/mL
Effect ([5]; strain ΔtolC, NMP + antibiotic): Additive (additive (FICI >0.5-1.0))
FICI ([5]; strain ΔtolC, NMP + antibiotic): 0.625
MICb Alone ([5]; strain ΔtolC, antibiotic alone): 4 µg/mL
MICb Combined ([5]; strain ΔtolC, antibiotic in combination with NMP): 0.5 µg/mL
Effect ([5]; ΔtolC, NMP + antibiotic): Additive
FICI ([5]; ΔtolC, NMP + antibiotic): 0.625
Effect ([5]; ΔtolC, PAβN + antibiotic): Synergistic
FICI ([5]; ΔtolC, PAβN + antibiotic): 0.375
MICb Alone ([5]; ΔtolC, antibiotic alone (PAβN checkerboard)): 2 µg/mL
MICb Combined ([5]; ΔtolC, antibiotic in combination with PAβN): 0.25 µg/mL
Effect ([6]; EKO-35 acrB, NMP + antibiotic): Synergistic
FICI ([6]; EKO-35 acrB, NMP + antibiotic): 0.500
Effect ([6]; EKO-35 acrB, PAβN + antibiotic): Synergistic
FICI ([6]; EKO-35 acrB, PAβN + antibiotic): 0.129
MICb Combined ([6]; EKO-35 acrB, antibiotic in combination with PAβN): 4 µg/mL
Effect ([6]; EKO-35 acrD, NMP + antibiotic): Additive
FICI ([6]; EKO-35 acrD, NMP + antibiotic): 0.563
Effect ([6]; EKO-35 acrD, PAβN + antibiotic): Synergistic
FICI ([6]; EKO-35 acrD, PAβN + antibiotic): 0.141
MICb Alone ([6]; EKO-35 acrD, antibiotic alone (PAβN checkerboard)): 256 µg/mL
MICb Combined ([6]; EKO-35 acrD, antibiotic in combination with PAβN): 4 µg/mL
Effect ([6]; EKO-35 acrEF, NMP + antibiotic): Additive
FICI ([6]; EKO-35 acrEF, NMP + antibiotic): 0.750
Effect ([6]; EKO-35 acrEF, PAβN + antibiotic): Synergistic
MICb Alone ([6]; EKO-35 acrEF, antibiotic alone (PAβN checkerboard)): 32 µg/mL
MICb Combined ([6]; EKO-35 acrEF, antibiotic in combination with PAβN): 8 µg/mL
Effect ([6]; EKO-35 mdtEF, NMP + antibiotic): Synergistic
Effect [6, 14]: Synergistic
FICI [6, 14]: 0.250
MICb Alone ([6]; EKO-35 mdtEF, antibiotic alone (PAβN checkerboard)): 64 µg/mL
MICb Combined ([6]; EKO-35 mdtEF, antibiotic in combination with PAβN): 8 µg/mL
Effect [6, 15]: Synergistic (Synergy (FICI ≤0.5))
FICI [6, 15]: 0.500
MICb Combined ([6]; strain EKO-35 acrB, antibiotic in combination with NMP): 256 µg/mL
Effect [6, 16]: Additive (additive (FICI >0.5-1.0))
FICI [6, 16]: 0.563
MICb Alone ([6]; strain EKO-35 acrD, antibiotic alone): 256 µg/mL
MICb Combined ([6]; strain EKO-35 acrD, antibiotic in combination with NMP): 16 µg/mL
Effect [6, 17]: Additive (additive (FICI >0.5-1.0))
FICI [6, 17]: 0.750
MICb Alone ([6]; strain EKO-35 acrEF, antibiotic alone): 32 µg/mL
MICb Combined ([6]; strain EKO-35 acrEF, antibiotic in combination with NMP): 16 µg/mL
Effect ([6]; strain EKO-35 mdtEF, NMP + antibiotic): Synergistic (Synergy (FICI ≤0.5))
MICb Alone ([6]; strain EKO-35 mdtEF, antibiotic alone): 64 µg/mL
MICb Combined ([6]; strain EKO-35 mdtEF, antibiotic in combination with NMP): 8 µg/mL
Effect [7, 18]: Synergistic
FICI [7, 18]: 0.500
Effect [7, 19]: Synergistic
FICI [7, 19]: 0.129
MICb Alone ([7]; EKO-35 acrB Pore, antibiotic alone (PAβN checkerboard)): 512 µg/mL
MICb Combined ([7]; EKO-35 acrB Pore, antibiotic in combination with PAβN): 2 µg/mL
potentiation of the labelled compound by NMP ([7]; porinated strain producing AcrB): enhancing the activity
Effect [7, 20]: Synergistic (Synergy (FICI ≤0.5))
FICI [7, 20]: 0.500
MICb Alone ([7]; strain EKO-35 acrB Pore, antibiotic alone): 512 µg/mL
Effect [8, 21]: Additive
FICI [8, 21]: 0.750
Effect [8, 22]: Synergistic
FICI [8, 22]: 0.255
MICb Alone ([8]; EKO-35 acrBD408A Pore, antibiotic alone (PAβN checkerboard)): 1 µg/mL
MICb Combined ([8]; EKO-35 acrBD408A Pore, antibiotic in combination with PAβN): 0.13 µg/mL
Effect [8, 23]: Additive (additive (FICI >0.5-1.0))
FICI [8, 23]: 0.750
MICb Alone ([8]; strain EKO-35 acrBD408A Pore, antibiotic alone): 0.5 µg/mL
MICb Combined ([8]; strain EKO-35 acrBD408A Pore, antibiotic in combination with NMP): 0.25 µg/mL
